Each block holds one molecule with its values, some of them ahead of it. Peptide text beside a SMILES is read from it.
Assays:
Assay type in all cases: functional, cell-based
[1] = molecular target: T1, Solute carrier family 15 member 1 (Homo sapiens) (UniProt P46059); assay: TP_TRANSPORTER: inhibition of Gly-Sar uptake (Gly-Sar: 100 uM, fMLP: 1000 uM) in Xenopus laevis oocytes; conditions: Oocyte
T1 sequence (whole entry): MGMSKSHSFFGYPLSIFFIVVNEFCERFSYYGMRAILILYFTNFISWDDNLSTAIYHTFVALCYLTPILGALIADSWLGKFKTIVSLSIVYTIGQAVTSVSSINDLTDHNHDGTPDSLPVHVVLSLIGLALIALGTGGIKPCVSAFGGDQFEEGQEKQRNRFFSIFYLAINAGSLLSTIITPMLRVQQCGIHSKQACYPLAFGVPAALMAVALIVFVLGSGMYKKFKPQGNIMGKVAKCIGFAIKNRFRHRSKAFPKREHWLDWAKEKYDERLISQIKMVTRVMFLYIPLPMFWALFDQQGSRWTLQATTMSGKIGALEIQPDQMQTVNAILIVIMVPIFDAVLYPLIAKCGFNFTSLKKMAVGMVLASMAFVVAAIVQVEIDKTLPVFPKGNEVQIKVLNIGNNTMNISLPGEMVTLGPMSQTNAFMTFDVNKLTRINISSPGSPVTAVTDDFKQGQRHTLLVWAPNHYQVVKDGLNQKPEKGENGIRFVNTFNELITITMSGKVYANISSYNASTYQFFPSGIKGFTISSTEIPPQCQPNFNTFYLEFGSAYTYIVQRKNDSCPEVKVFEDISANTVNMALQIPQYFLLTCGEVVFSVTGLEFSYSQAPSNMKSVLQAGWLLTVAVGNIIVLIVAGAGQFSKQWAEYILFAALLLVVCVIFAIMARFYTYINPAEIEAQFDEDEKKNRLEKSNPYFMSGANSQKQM

[2] = molecular target: T1, Solute carrier family 15 member 1 (Homo sapiens); assay: TP_TRANSPORTER: uptake in Xenopus laevis oocytes; conditions: Oocyte
[3] = molecular target: T1, Solute carrier family 15 member 1 (Homo sapiens); assay: TP_TRANSPORTER: inhibition of fMLP uptake (fMLP: 0.1 uM, Carnosine: 10000 uM) in Caco-2 cells
[4] = molecular target: T1, Solute carrier family 15 member 1 (Homo sapiens); assay: TP_TRANSPORTER: inhibition of fMLP uptake (fMLP: 0.1 uM, Gly-Leu: 10000 uM) in Caco-2 cells
[5] = molecular target: T1, Solute carrier family 15 member 1 (Homo sapiens); assay: TP_TRANSPORTER: inhibition of fMLP uptake (fMLP: 0.12 uM, Gly-Leu: 10000 uM) in Xenopus laevis oocytes; conditions: Oocyte
[6] = molecular target: T1, Solute carrier family 15 member 1 (Homo sapiens); assay: TP_TRANSPORTER: inhibition of fMLP uptake (fMLP: 0.1 uM, Gly-Pro: 10000 uM) in Caco-2 cells

inhibition [1]: 88%
Activity [2]: substrate [+]
SMILES: CSCC[C@H](NC=O)C(=O)N[C@@H](CC(C)C)C(=O)N[C@@H](Cc1ccccc1)C(=O)O

inhibition [3]: 93%
SMILES: NCCC(=O)N[C@@H](Cc1c[nH]cn1)C(=O)O

inhibition [4]: 93%
Activity [5]: inhibitor [+]
SMILES: CC(C)C[C@H](NC(=O)CN)C(=O)O

inhibition [6]: 78%
SMILES: NCC(=O)N1CCC[C@H]1C(=O)O (H-Gly-Pro-OH)

Reference: ChEMBL document CHEMBL2074327, “hPepT1-mediated epithelial transport of bacteria-derived chemotactic peptides enhances neutrophil-epithelial interactions” (J Clin Invest, 1998)
